Data on 4 compounds can be found in patent publication US20250041307A1, “Uses of Bicyclic Compounds for the Treatment of Diseases” (Athira Pharma, Inc., priority 2021, published 2025).

A short description of data set [1]: In vitro stability in human plasma. Format: in vitro ADME. The following applies: 5 μM, 37° C. As for the experimental part:
(§1) Bioavailability can be estimated by compound stability when exposed to conditions in the body. As an initial assessment of stability properties in a variety of conditions present in animals, exemplary compounds were tested for stability in a battery of simulated body compartments. Compounds were tested for stability in the following solutions: simulated gastric fluid (SGF: 34.2 mM NaCl, pH 1.2), simulated gastric fluid with the digestive enzyme pepsin (SGF+Enzyme: SGF with 3.2 mg/ml pepsin), simulated intestinal fluid with the mixture of enzymes in porcine pancreatin (SIF+Enzyme: 28.7 mM NaH2PO4, 105.7 mM NaCl, pH 6.8, 10 mg/ml pancreatin), rat plasma, and human plasma.
(§2) Test compounds were incubated at a final concentration of 5 μM in the above solutions at 37° C. with samples removed at the following time points: 0, 1, 2, and 4 hours. Reactions were stopped and prepared for quantification by addition of excess quench solution containing an internal standard (acetonitrile, 200 ng/mL bucetin). Test compound and internal standard in each sample was quantified by LC-MS/MS, and after internal normalization to bucetin, test compound concentration was expressed as a percentage of concentration at the 0-hour time point. Stability in the relevant test solution was then determined by the percent remaining at the 4-hour time point.

A short description of data set [2]: In vivo tissue distribution. The conditions noted are these: rat, 10 minutes post administration. The arrangement: species or system Sprague-dawley rats. As for the experimental part: The rate of distribution to target tissues is an important feature of therapeutic molecules. Tissue distribution of exemplary compounds was performed in mixed-sex Sprague-dawley rats. Test compounds were delivered via tail vein injection (IV) and tissues were collected at Tmax (10 minutes post administration). Animals were deeply anesthetized with isoflurane and whole blood was collected from the right atrium and processed by centrifugation to produce plasma. Animals were then fully perfused with PBS administered to the left ventricle to prevent blood contamination of tissues.
Tissues were collected and homogenized, and compound content in the target tissue was quantified by LC-MS/MS. Tissue distribution rates were determined by dividing the tissue concentration of compound by the plasma concentration and multiplying by 100.

A further data set concerns HGF/MET system. Put plainly: Phospho-MET ELISA. Format: cell-based. The conditions noted are these: HEK293 cells; with 1 ng/mL recombinant HGF; 15 minutes; augmentation of MET phosphorylation (pMET ELISA). The gist of the method:
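Serum-starved (≥8 h) HEK293 cells treated with compound plus 1 ng/mL recombinant HGF for 15 min at 37° C in triplicate, then lysed in RIPA. Equal protein (50–100 μg, BCA-normalized) run in pMET sandwich ELISA, A450 read. Responses scaled 1–10 between 1 ng/mL and 10 ng/mL HGF means, using peak efficacy.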
On the technique in general: In an ELISA, binding on a coated surface is turned into a signal by an enzyme label.

A short description of data set [3]: In vitro stability in rat plasma. The format is in vitro ADME. The following applies: 5 μM, 37° C. As for the experimental part:
as §1, §2

Data set [4] concerns hepatocyte (HepG2) cell cultures. Put plainly: Cytotoxicity assay (LDH release). Format: cell-based. The following applies: HepG2 cells, 48 hours, 0.1 to 100 μM. The gist of the method:
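Cells in EMEM+10% FBS treated 48 h at 37° C with compounds at 0.1-100 μM; cerivastatin 0.5 μM served as positive control. LDH released into supernatant measured colorimetrically at 490 nm, range set by untreated and full-lysis controls; >20% above negative control counted as cytotoxic.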

As for `CCC(C)CN1CC2N(C(=O)c3ccc(F)cc3)CCC(=O)N2C(C)C1=O` (stereo not drawn) [Compound 11, 1-(4-fluorobenzoyl)-6-methyl-8-(2-methylbutyl)hexahydro-4H-pyrazino[1,2-a]pyrimidine-4,7(6H)-dione], the “Human Plasma, compound remaining after 4 hours” value (“Human Plasma, compound remaining” below) in data set [1] is listed as “+++ (+++ indicates 80-99% compound remaining after 4 hours)”. For the same compound, in data set [2], the “Tissue Distribution (% Plasma exposure at 10 min post IV dose) Brain” value is “++ (++ indicates distribution between 5 and 39%)”; the “Tissue Distribution (% Plasma exposure at 10 min post IV dose) Cerebellum” value is “+ (+ indicates distribution between 0.05 and 5%)”; the “Tissue Distribution (% Plasma exposure at 10 min post IV dose) Cortex” value was “+ (+ indicates distribution between 0.05 and 5%)”; the “Tissue Distribution (% Plasma exposure at 10 min post IV dose) Hippocampus” value was “+ (+ indicates distribution between 0.05 and 5%)”. Also, in data set [2], the “Tissue Distribution (% Plasma exposure at 10 min post IV dose) Sciatic Nerve” value is “++ (++ indicates distribution between 5 and 39%)”. The Potency result with HGF/MET system is on record as “+++ (+++ indicates maximum potency at or above 1 nM)”. Further, the “Rat Plasma, compound remaining after 4 hours” value (“Rat Plasma, compound remaining” for short) in data set [3] is reported as “++++ (++++ indicates 100% compound remaining after 4 hours)”. Besides, in data set [4], the Cytotoxicity result is on record as “++++ (++++ indicates non-toxic at 100 μM)”.

Consider `CCC(C)CN1CC2N(C(=O)c3ccc(C(F)(F)F)c(Cl)c3)CCC(=O)N2C(C)C1=O` (stereo not drawn) [Compound 12, 1-(3-chloro-4-(trifluoromethyl)benzoyl)-6-methyl-8-(2-methylbutyl)hexahydro-4H-pyrazino[1,2-a]pyrimidine-4,7(6H)-dione], for which the “Human Plasma, compound remaining” value in data set [1] is listed as “+++ (+++ indicates 80-99% compound remaining after 4 hours)”. For the same compound, in data set [2], the “Tissue Distribution (% Plasma exposure at 10 min post IV dose) Brain” value is “++ (++ indicates distribution between 5 and 39%)”; the “Tissue Distribution (% Plasma exposure at 10 min post IV dose) Cerebellum” value was “++ (++ indicates distribution between 5 and 39%)”; the “Tissue Distribution (% Plasma exposure at 10 min post IV dose) Cortex” value is “++ (++ indicates distribution between 5 and 39%)”; the “Tissue Distribution (% Plasma exposure at 10 min post IV dose) Hippocampus” value was “++ (++ indicates distribution between 5 and 39%)”. Moreover, the “Tissue Distribution (% Plasma exposure at 10 min post IV dose) Sciatic Nerve” value in data set [2] was “+++ (+++ indicates distribution between 40 and 69%)”. Further, in the data set with HGF/MET system, the Potency entry was “++ (++ indicates maximum potency at or above 10 nM)”. Moreover, the “Rat Plasma, compound remaining” value in data set [3] is “++++ (++++ indicates 100% compound remaining after 4 hours)”. Further, the Cytotoxicity entry in data set [4] is listed as “++++ (++++ indicates non-toxic at 100 μM)”.

Regarding `CC1C(=O)N(CCC2CCC2)CC2N(C(=O)c3ccc(C(F)(F)F)cc3)CCC(=O)N12` (stereo not drawn) [Compound 20], the “Human Plasma, compound remaining” value in data set [1] is “+++ (+++ indicates 80-99% compound remaining after 4 hours)”. In data set [2], the “Tissue Distribution (% Plasma exposure at 10 min post IV dose) Brain” value is “++++ (++++ indicates distribution above 70%)”; the “Tissue Distribution (% Plasma exposure at 10 min post IV dose) Cerebellum” value was “++++ (++++ indicates distribution above 70%)”; the “Tissue Distribution (% Plasma exposure at 10 min post IV dose) Cortex” value is listed as “++++ (++++ indicates distribution above 70%)”; the “Tissue Distribution (% Plasma exposure at 10 min post IV dose) Hippocampus” value was “+++ (+++ indicates distribution between 40 and 69%)”. The “Tissue Distribution (% Plasma exposure at 10 min post IV dose) Sciatic Nerve” value in data set [2] was “++++ (++++ indicates distribution above 70%)”. In addition, the Potency entry in the data set on HGF/MET system is reported as “+ (+ indicates maximum potency at or above 100 nM)”. In addition, the “Rat Plasma, compound remaining” value in data set [3] is “++ (++ indicates 40-79% compound remaining after 4 hours)”. The Cytotoxicity entry in data set [4] is “++++ (++++ indicates non-toxic at 100 μM)”.

As for `C=CCCN1CC2N(C(=O)c3ccc(C(F)(F)F)cc3)CCC(=O)N2C(C)C1=O` (stereo not drawn) [Compound 22], the “Human Plasma, compound remaining” value in data set [1] is listed as “+++ (+++ indicates 80-99% compound remaining after 4 hours)”. For the same compound, in data set [2], the “Tissue Distribution (% Plasma exposure at 10 min post IV dose) Brain” value was “++ (++ indicates distribution between 5 and 39%)”; the “Tissue Distribution (% Plasma exposure at 10 min post IV dose) Cerebellum” value was “++ (++ indicates distribution between 5 and 39%)”; the “Tissue Distribution (% Plasma exposure at 10 min post IV dose) Cortex” value is “++ (++ indicates distribution between 5 and 39%)”; the “Tissue Distribution (% Plasma exposure at 10 min post IV dose) Hippocampus” value is “++ (++ indicates distribution between 5 and 39%)”. The “Tissue Distribution (% Plasma exposure at 10 min post IV dose) Sciatic Nerve” value in data set [2] is “+++ (+++ indicates distribution between 40 and 69%)”. In the data set with HGF/MET system, the Potency entry is on record as “+++ (+++ indicates maximum potency at or above 1 nM)”. The “Rat Plasma, compound remaining” value in data set [3] is listed as “+++ (+++ indicates 80-99% compound remaining after 4 hours)”. For the same compound, the Cytotoxicity entry in data set [4] is reported as “++++ (++++ indicates non-toxic at 100 μM)”.
